# Reference: patent publication US20250099420A1, “SMALL MOLECULE MODULATORS OF GPR139 COMPLEX” (University of Florida Research Foundation, Incorporated, priority 2022, published 2025)
# Read-outs that look alike come from different tables or passages of the source.
# How the values were obtained:
# parental HEK cells = assay: HEK parental Agonist Counterscreen Assay (non-transfected cells); type: cell-based; settings: for Averaged Max % Response (±St. Dev.): activity relative to known control
# Source text: The high control for the agonist counterscreen was Forskolin not acetylcholine.
# GPR139 = molecular target: T1, GPR139 (Homo sapiens, UniProt Q6DWJ6); assay: GPR139 Agonist titration / agonist counterscreen assay (calcium detection, HEK-GPR139 cells); type: cell-based; design: expressed in transfected cells; host or cells: HEK Aequorin cells, Maxcyte transient transfection; settings: GPR139 Agonist Activity; for Averaged Max % Response (±St. Dev.): activity relative to known control; for EC50: read-out: EC50
# T1 sequence (Q6DWJ6 1-353): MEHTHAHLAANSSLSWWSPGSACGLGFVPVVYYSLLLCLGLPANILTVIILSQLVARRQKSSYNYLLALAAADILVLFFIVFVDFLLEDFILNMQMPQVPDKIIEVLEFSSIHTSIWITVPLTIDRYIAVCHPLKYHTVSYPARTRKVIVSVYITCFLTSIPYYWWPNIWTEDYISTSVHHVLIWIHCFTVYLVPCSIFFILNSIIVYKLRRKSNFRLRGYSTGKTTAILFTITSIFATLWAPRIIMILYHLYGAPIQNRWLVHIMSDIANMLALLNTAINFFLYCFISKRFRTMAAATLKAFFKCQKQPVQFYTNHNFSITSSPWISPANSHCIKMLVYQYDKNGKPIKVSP
# Experimental: GPR activity was assessed using a calcium detection assay. […] Negative control samples were treated with DMSO. […] Intracellular calcium was measured using Calcium 5.
# [1] = Homo sapiens, HEK293, HEK Agonist Activity section of Table 4 (parental HEK counterscreen)
# [2] = values printed in E-notation without unit
# [3] = Homo sapiens, HEK293, HEK Agonist Activity, parental non-transfected HEK cells
Structure (SMILES),Lipophilic Efficiency (logD) (parental HEK cells; HEK Agonist Activity section),Lipophilic Efficiency (logP) (parental HEK cells; HEK Agonist Activity section),Averaged Max % Response (±St. Dev.) (parental HEK cells; HEK Agonist Activity section),EC50 (parental HEK cells; [1]),Averaged Max % Response (±St. Dev.) (GPR139),Lipophilic Efficiency (logD) (GPR139; based on logD),Lipophilic Efficiency (logP) (GPR139; based on logP),Hill Slope (GPR139; fitted dose-response curve),Efficiency Ligand (GPR139; ligand efficiency),Efficiency Ligand (GPR139),Hill Slope (GPR139),Lipophilic Efficiency (logD) (GPR139),Lipophilic Efficiency (logP) (GPR139),EC50 (GPR139; HEK-GPR139 cells),EC50 (GPR139; [2]),Lipophilic Efficiency (logD) (parental HEK cells; HEK Agonist Activity),Lipophilic Efficiency (logP) (parental HEK cells; HEK Agonist Activity),Averaged Max % Response (±St. Dev.) (parental HEK cells; HEK Agonist Activity),EC50 (parental HEK cells; [3]),also measured
Cc1ccc(CNC(=O)COC(=O)c2ccc(Br)o2)cc1 [SR-01000042100],2.20,2.20,17.67 ± 3.11%,> 14400 nM,100.32 ± 4.53%,4.12,4.12,0.79,0.45,–,–,–,–,–,–,–,–,–,–,–
CCCCC(=O)OCC(=O)NCc1ccc(C)cc1 [SR-01000042109],2.18,2.18,21.12 ± 3.06%,> 15000 nM,92.84 ± 12.11%,–,–,–,–,0.47,1.40,3.80,3.80,363 nM,–,–,–,–,–,–
O=C(CN1C(=O)NC2(CCc3ccccc3C2)C1=O)Nc1cccc2ccccc12 (stereo not drawn) [SR-01000042749],1.39,1.39,−8.38 ± 6.55%,> 14100 nM,74.83 ± 7.16%,–,–,–,–,0.29,0.27,2.77,2.77,585 nM,–,–,–,–,–,–
CC1CCCCN1C(=O)CN1C(=O)C2(CCc3ccccc3C2)NC1=S (stereo not drawn) [SR-01000044433],2.90,2.90,12.49 ± 3.39%,> 14300 nM,96.03 ± 12.11%,–,–,–,–,0.33,0.97,4.10,4.10,896 nM,–,–,–,–,–,–
CCC1(c2ccc(Cl)cc2)NC(=O)N(CC(=O)N2CC3(C)CC2CC(C)(C)C3)C1=O (stereo not drawn) [SR-01000045673],1.24,1.24,4.34 ± 4.74%,> 14300 nM,101.61 ± 5.25%,3.67,3.67,0.62,0.34,–,–,–,–,–,54.3 nM,–,–,–,–,–
COc1cc(C(C)=O)ccc1OCC(=O)NC(C)CCc1ccccc1 (stereo not drawn) [SR-01000048295],–,–,–,–,102.89 ± 3.61%,4.43,4.43,0.88,0.40,–,–,–,–,–,38.3 nM,1.86,1.86,7.53 ± 4.49%,> 14300 nM,–
Cc1ccc(C2(C)NC(=O)N(CC(=O)NCC(C)C)C2=O)cc1 (stereo not drawn) [SR-01000048367],–,–,–,–,122.38 ± 5.77%,5.64,5.64,0.74,0.45,–,–,–,–,–,36.5 nM,3.00,3.00,8.71 ± 14.83%,> 16000 nM,–
CN(C(=O)CN1C(=O)NC(C)(c2ccc3ccccc3c2)C1=O)C1CCCCC1 (stereo not drawn) [SR-01000048373],1.79,1.79,9.79 ± 7.30%,–,118.34 ± 15.06%,3.96,3.96,0.66,0.34,–,–,–,–,–,96.7 nM,–,–,–,–,EC50 (parental HEK cells; HEK Agonist Activity section of Table 4 (parental HEK counterscreen)): > 14300 nM
CCC1CCCCN1C(=O)CN1C(=O)NC(C)(c2ccc3ccccc3c2)C1=O (stereo not drawn) [SR-01000048417],–,–,–,–,111.02 ± 13.88%,4.73,4.73,0.52,0.38,–,–,–,–,–,16.9 nM,1.80,1.80,−4.34 ± 6.43%,–,"EC50 (parental HEK cells; HEK Agonist Activity, parental non-transfected HEK cells): > 14300 nM"
C=C(C)CN(CC)C(=O)CN1C(=O)NC(C)(c2ccc3ccccc3c2)C1=O (stereo not drawn) [SR-01000048841],–,–,–,–,125.61 ± 14.18%,5.59,5.59,0.27,0.41,–,–,–,–,–,6.7 nM,2.25,2.25,15.49 ± 13.53%,> 14800 nM,–
